Molecules are shown by their SMILES. Residues, ends and D or L forms follow the SMILES beside them.

In the assay the target is Human immunodeficiency virus type 1 protease (Human immunodeficiency virus 1) (UniProt Q72874). The assay is described as follows: Inhibitory activity against HIV-1 protease at 100 uM.
On to `CC[C@H](C)[C@H](NC(C)=O)C(=O)NCC(=O)N[C@@H](CO)C(=O)N[C@H](C(=O)N[C@@H](CC(C)C)C(=O)N[C@@H](CC(N)=O)C(=O)N[C@@H](Cc1ccccc1)C(=O)O)[C@@H](C)O` (Ac-IGSTLNF-OH), for which the inhibition is 12.6%.
As for `CC[C@H](C)[C@H](NC(=O)[C@H](CCC(N)=O)NC(=O)[C@@H]1CCCN1)C(=O)N[C@H](C(=O)N[C@@H](CC(C)C)C(=O)N[C@@H](Cc1c[nH]c2ccccc12)C(=O)O)[C@@H](C)O` (H-PQITLW-OH), the inhibition is 39.9%.
Next, `CC[C@H](C)[C@H](NC(=O)[C@H](CCC(N)=O)NC(=O)[C@@H]1CCCN1C(C)=O)C(=O)N[C@H](C(=O)N[C@@H](CC(C)C)C(=O)N[C@@H](Cc1c[nH]c2ccccc12)C(=O)O)[C@@H](C)O` (Ac-PQITLW-OH): 28.1%; `CC(=O)NCC(=O)N[C@@H](CO)C(=O)N[C@H](C(=O)N[C@@H](CC(C)C)C(=O)N[C@@H](CC(N)=O)C(=O)N[C@@H](Cc1ccccc1)C(=O)O)[C@@H](C)O` (Ac-GSTLNF-OH): 4.6%; `CC[C@H](C)[C@H](NC(=O)[C@H](CCC(N)=O)NC(C)=O)C(=O)NCC(=O)N[C@@H](CO)C(=O)N[C@H](C(=O)N[C@@H](CC(C)C)C(=O)N[C@@H](CC(N)=O)C(=O)N[C@@H](Cc1ccccc1)C(=O)O)[C@@H](C)O` (Ac-QIGSTLNF-OH): 34.6%.
Consider `CC[C@H](C)[C@H](NC(=O)[C@H](CCC(N)=O)NC(=O)[C@@H]1CCCN1)C(=O)N[C@H](C(=O)N[C@@H](CC(C)C)C(=O)N[C@@H](Cc1c[nH]c2ccccc12)C(=O)N[C@@H](CCC(N)=O)C(=O)O)[C@@H](C)O` (H-PQITLWQ-OH), for which the inhibition was determined as 1.3%.
As to `CC(=O)N[C@@H](CO)C(=O)N[C@H](C(=O)N[C@@H](CC(C)C)C(=O)N[C@@H](CC(N)=O)C(=O)N[C@@H](Cc1ccccc1)C(=O)O)[C@@H](C)O` (Ac-STLNF-OH), the inhibition was found to be 37.2%.
On to `CC[C@H](C)[C@H](NC(=O)[C@H](CCC(N)=O)NC(=O)[C@@H]1CCCN1C(C)=O)C(=O)N[C@H](C(=O)N[C@@H](CC(C)C)C(=O)O)[C@@H](C)O` (Ac-PQITL-OH), for which the inhibition was -1.4%.
Next, `CC[C@H](C)[C@H](NC(=O)[C@H](CCC(N)=O)NC(=O)[C@@H]1CCCN1)C(=O)N[C@H](C(=O)N[C@@H](CC(C)C)C(=O)O)[C@@H](C)O` (H-PQITL-OH): 5.6%; `CC[C@H](C)[C@H](NC(=O)[C@H](CCC(N)=O)NC(=O)[C@@H]1CCCN1C(C)=O)C(=O)N[C@H](C(=O)N[C@@H](CC(C)C)C(=O)N[C@@H](Cc1c[nH]c2ccccc12)C(=O)N[C@@H](CCC(N)=O)C(=O)O)[C@@H](C)O` (Ac-PQITLWQ-OH): 26%; `CC(=O)N[C@H](C(=O)N[C@@H](CC(C)C)C(=O)N[C@@H](CC(N)=O)C(=O)N[C@@H](Cc1ccccc1)C(=O)O)[C@@H](C)O` (Ac-TLNF-OH): 3.9%.

A word on the inhibition: it is the change of the read-out against control, counted positive when it falls.

The values are drawn from ChEMBL document CHEMBL1126821, “A systematic evaluation of the inhibition of HIV-1 protease by its C- and N-terminal peptides” (Bioorg Med Chem Lett, 1993).
